Test results reported in US20250084095A1, “Aminopyrimidine Derivatives as Cyclin-Dependent Kinase Inhibitors” (Accutar Biotechnology Inc., priority 2023, published 2025).

Key:
22RV1 cells = assay: Cell growth inhibition of 22RV1 cells (CellTiter-Glo); type: cell-based; conditions: Homo sapiens, 22Rv1, 120 h, 5 days, CellTiter-Glo, read-out: 22RV1 Cell Growh GI50
Summary of the method: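 22RV1 cells were plated in RPMI1640 with FBS (20% in one version, 10% in the other) and dosed next day at various concentrations from DMSO stocks. After 5 days at 37 °C, viability was measured by CellTiter-Glo luminescence.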

[1] = test system: Phospho-Rb (Ser807/811) in MCF7 cells; assay: Phospho-Rb expression inhibition in MCF7 cells quantified by in cell Western; type: cell-based, human; conditions: Homo sapiens, MCF7, 24 h, 24 hours, in cell Western, read-out: MCF7 pRb IC50
Summary of the method: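 MCF7 cells were seeded at 20,000/well, grown overnight, then treated 24 h at 37 °C with compound dilutions (0.1% DMSO from 1000× stocks). Fixed cells were co-stained for phospho-Rb Ser807/811 and total Rb. Near-infrared dual-channel in-cell Western imaging was the read-out.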

Row | GI50 (22RV1 cells) [µM] | IC50 [1] [µM] | Compound
1 | ≤ 0.12 | 0.04 to 0.15 | Cc1c(CN2CC[C@H](O)C2)n(C(C)C)c2cc(-c3nc(N[C@@H]4C[C@H]5CO[C@H](O5)[C@H]4O)ncc3F)ccc2c1=O [Compound 207, 7-(5-fluoro-2-(((1S,3R,4S,5R)-4-hydroxy-6,8-dioxabicyclo[3.2.1]octan-3-yl)amino)pyrimidin-4-yl)-2-(((S)-3-hydroxypyrrolidin-1-yl)methyl)-1-isopropyl-3-methylquinolin-4(1H)-one]
2 | ≤ 0.12 | ≤ 0.04 | Cc1c(CN2CCC(F)(F)C2)n(C(C)C)c2cc(-c3nc(N[C@@H]4C[C@H]5CO[C@H](O5)[C@H]4O)ncc3F)ccc2c1=O [Compound 208, 2-((3,3-difluoropyrrolidin-1-yl)methyl)-7-(5-fluoro-2-(((1S,3R,4S,5R)-4-hydroxy-6,8-dioxabicyclo[3.2.1]octan-3-yl)amino)pyrimidin-4-yl)-1-isopropyl-3-methylquinolin-4(1H)-one]
3 | 0.12 to 0.45 | 0.04 to 0.15 | CC(C)n1c(CN2[C@@H](C)COC[C@@H]2C)cc(=O)c2ccc(-c3nc(N[C@@H]4C[C@H]5CO[C@H](O5)[C@H]4O)ncc3F)cc21 [Compound 209, 2-(((3S,5S)-3,5-dimethylmorpholino)methyl)-7-(5-fluoro-2-(((1S,3R,4S,5R)-4-hydroxy-6,8-dioxabicyclo[3.2.1]octan-3-yl)amino)pyrimidin-4-yl)-1-isopropylquinolin-4(1H)-one]
4 | 0.45 to 3 | 0.15 to 1 | CC(C)n1c(CN2CC[C@@H](F)C2)cc(=O)c2ccc(-c3nc(N[C@@H]4C[C@H]5CO[C@H](O5)[C@H]4O)ncc3F)cc21 [Compound 210, 7-(5-fluoro-2-(((1S,3R,4S,5R)-4-hydroxy-6,8-dioxabicyclo[3.2.1]octan-3-yl)amino)pyrimidin-4-yl)-2-(((R)-3-fluoropyrrolidin-1-yl)methyl)-1-isopropylquinolin-4(1H)-one]
5 | > 3 | > 1 | Cc1c(CN2CCOC2=O)n(C(C)C)c2cc(-c3nc(N[C@@H]4C[C@H]5CO[C@H](O5)[C@H]4O)ncc3F)ccc2c1=O [Compound 211, 3-((7-(5-fluoro-2-(((1S,3R,4S,5R)-4-hydroxy-6,8-dioxabicyclo[3.2.1]octan-3-yl)amino)pyrimidin-4-yl)-1-isopropyl-3-methyl-4-oxo-1,4-dihydroquinolin-2-yl)methyl)oxazolidin-2-one]
6 | > 3 | 0.15 to 1 | Cc1c(CN2C[C@H](C)OC2=O)n(C(C)C)c2cc(-c3nc(N[C@@H]4C[C@H]5CO[C@H](O5)[C@H]4O)ncc3F)ccc2c1=O [Compound 212, (S)-3-((7-(5-fluoro-2-(((1S,3R,4S,5R)-4-hydroxy-6,8-dioxabicyclo[3.2.1]octan-3-yl)amino)pyrimidin-4-yl)-1-isopropyl-3-methyl-4-oxo-1,4-dihydroquinolin-2-yl)methyl)-5-methyloxazolidin-2-one]
7 | > 3 | > 1 | Cc1c(C(=O)N2[C@@H](C)COC[C@@H]2C)n(C(C)C)c2cc(-c3nc(N[C@@H]4C[C@H]5CO[C@H](O5)[C@H]4O)ncc3Cl)ccc2c1=O [Compound 213, 7-(5-chloro-2-(((1S,3R,4S,5R)-4-hydroxy-6,8-dioxabicyclo[3.2.1]octan-3-yl)amino)pyrimidin-4-yl)-2-((3S,5S)-3,5-dimethylmorpholine-4-carbonyl)-1-isopropyl-3-methylquinolin-4(1H)-one]
8 | > 3 | > 1 | Cc1c(C(=O)N2CCOCC2)n(C(C)C)c2cc(-c3nc(N[C@@H]4C[C@H]5CO[C@H](O5)[C@H]4O)ncc3Cl)ccc2c1=O [Compound 214, 7-(5-chloro-2-(((1S,3R,4S,5R)-4-hydroxy-6,8-dioxabicyclo[3.2.1]octan-3-yl)amino)pyrimidin-4-yl)-1-isopropyl-3-methyl-2-(morpholine-4-carbonyl)quinolin-4(1H)-one]
9 | 0.45 to 3 | 0.04 to 0.15 | Cc1c(-c2nc(N[C@@H]3C[C@H]4CO[C@H](O4)[C@H]3O)ncc2F)sc2cc(CN3[C@@H](C)COC[C@@H]3C)n(C)c(=O)c12 [Compound 215, 6-(((3S,5S)-3,5-dimethylmorpholino)methyl)-2-(5-fluoro-2-(((1S,3R,4S,5R)-4-hydroxy-6,8-dioxabicyclo[3.2.1]octan-3-yl)amino)pyrimidin-4-yl)-3,5-dimethylthieno[3,2-c]pyridin-4(5H)-one]
10 | 0.12 to 0.45 | 0.04 to 0.15 | CC(C)n1c(C(C)(C)N2CCOCC2)nc2c(F)cc(-c3nc(N[C@@H]4C[C@H]5CO[C@H](O5)[C@H]4O)ncc3Cl)cc21 [Compound 219, (1S,3R,4S,5R)-3-((5-chloro-4-(4-fluoro-1-isopropyl-2-(2-morpholinopropan-2-yl)-1H-benzo[d]imidazol-6-yl)pyrimidin-2-yl)amino)-6,8-dioxabicyclo[3.2.1]octan-4-ol]
11 | 0.45 to 3 | 0.15 to 1 | CC(C)n1c(C(C)(C)N2CC(F)(F)C2)nc2c(F)cc(-c3nc(N[C@@H]4C[C@H]5CO[C@H](O5)[C@H]4O)ncc3Cl)cc21 [Compound 222, (1S,3R,4S,5R)-3-((5-chloro-4-(2-(2-(3,3-difluoroazetidin-1-yl)propan-2-yl)-4-fluoro-1-isopropyl-1H-benzo[d]imidazol-6-yl)pyrimidin-2-yl)amino)-6,8-dioxabicyclo[3.2.1]octan-4-ol]
12 | 0.45 to 3 | 0.04 to 0.15 | Cc1c(-c2nc(N[C@@H]3C[C@H]4CO[C@H](O4)[C@H]3O)ncc2Cl)sc2c(C(C)C)cn(C(F)F)c(=O)c12 [Compound 231, 2-(5-chloro-2-(((1S,3R,4S,5R)-4-hydroxy-6,8-dioxabicyclo[3.2.1]octan-3-yl)amino)pyrimidin-4-yl)-5-(difluoromethyl)-7-isopropyl-3-methylthieno[3,2-c]pyridin-4(5H)-one]
13 | 0.45 to 3 | 0.15 to 1 | Cc1c(-c2nc(N[C@@H]3C[C@H]4CO[C@H](O4)[C@H]3O)ncc2F)sc2cc(CN3CCOCC3)n(C)c(=O)c12 [Compound 232, 2-(5-fluoro-2-(((1S,3R,4S,5R)-4-hydroxy-6,8-dioxabicyclo[3.2.1]octan-3-yl)amino)pyrimidin-4-yl)-3,5-dimethyl-6-(morpholinomethyl)thieno[3,2-c]pyridin-4(5H)-one]
14 | 0.45 to 3 | 0.15 to 1 | CC(C)c1cn(C)c(=O)c2ccc(-c3nc(N[C@@H]4C[C@H]5CO[C@H](O5)[C@H]4O)ncc3Cl)cc12 [Compound 236, 6-(5-chloro-2-(((1S,3R,4S,5R)-4-hydroxy-6,8-dioxabicyclo[3.2.1]octan-3-yl)amino)pyrimidin-4-yl)-4-isopropyl-2-methylisoquinolin-1(2H)-one]
15 | 0.45 to 3 | 0.04 to 0.15 | CC(C)c1cc2cc(-c3nc(N[C@@H]4C[C@H]5CO[C@H](O5)[C@H]4O)ncc3Cl)ccc2c(=O)n1C [Compound 237, 6-(5-chloro-2-(((1S,3R,4S,5R)-4-hydroxy-6,8-dioxabicyclo[3.2.1]octan-3-yl)amino)pyrimidin-4-yl)-3-isopropyl-2-methylisoquinolin-1(2H)-one]
16 | 0.12 to 0.45 | ≤ 0.04 | CC(C)n1c(C2CC(F)C2)nc2c(F)cc(-c3nc(N[C@@H]4C[C@H]5CO[C@H](O5)[C@H]4O)ncc3Cl)cc21 (stereo partly drawn) [Compound 242, (1S,3R,4S,5R)-3-((5-chloro-4-(4-fluoro-2-((1s,3S)-3-fluorocyclobutyl)-1-isopropyl-1H-benzo[d]imidazol-6-yl)pyrimidin-2-yl)amino)-6,8-dioxabicyclo[3.2.1]octan-4-ol]
17 | 0.12 to 0.45 | 0.04 to 0.15 | CC(C)n1c(C2CC(O)C2)nc2c(F)cc(-c3nc(N[C@@H]4C[C@H]5CO[C@H](O5)[C@H]4O)ncc3Cl)cc21 (stereo partly drawn) [Compound 244, (1S,3R,4S,5R)-3-((5-chloro-4-(4-fluoro-2-((1s,3S)-3-hydroxycyclobutyl)-1-isopropyl-1H-benzo[d]imidazol-6-yl)pyrimidin-2-yl)amino)-6,8-dioxabicyclo[3.2.1]octan-4-ol]
18 | ≤ 0.12 | ≤ 0.04 | CC(C)c1c(C(C)(C)O)cnc2c(F)cc(-c3nc(N[C@@H]4C[C@H]5CO[C@H](O5)[C@H]4O)ncc3Cl)cc12 [Compound 250, (1S,3R,4S,5R)-3-((5-chloro-4-(8-fluoro-3-(2-hydroxypropan-2-yl)-4-isopropylquinolin-6-yl)pyrimidin-2-yl)amino)-6,8-dioxabicyclo[3.2.1]octan-4-ol]
19 | ≤ 0.12 | 0.04 to 0.15 | CC(C)(O)c1ccnc2c(F)cc(-c3nc(N[C@@H]4C[C@H]5CO[C@H](O5)[C@H]4O)ncc3Cl)cc12 [Compound 251, (1S,3R,4S,5R)-3-((5-chloro-4-(8-fluoro-4-(2-hydroxypropan-2-yl)quinolin-6-yl)pyrimidin-2-yl)amino)-6,8-dioxabicyclo[3.2.1]octan-4-ol]
20 | 0.12 to 0.45 | 0.15 to 1 | CC(C)(O)c1cnc2c(F)cc(-c3nc(N[C@@H]4C[C@H]5CO[C@H](O5)[C@H]4O)ncc3Cl)cc2c1 [Compound 253, (1S,3R,4S,5R)-3-((5-chloro-4-(8-fluoro-3-(2-hydroxypropan-2-yl)quinolin-6-yl)pyrimidin-2-yl)amino)-6,8-dioxabicyclo[3.2.1]octan-4-ol]
21 | 0.12 to 0.45 | 0.15 to 1 | CC(C)(O)c1cnc2c(F)cc(-c3nc(N[C@@H]4C[C@H]5CO[C@H](O5)[C@H]4O)ncc3F)cc2c1 [Compound 254, (1S,3R,4S,5R)-3-((5-fluoro-4-(8-fluoro-3-(2-hydroxypropan-2-yl)quinolin-6-yl)pyrimidin-2-yl)amino)-6,8-dioxabicyclo[3.2.1]octan-4-ol]
22 | > 3 | > 1 | CC(C)(O)c1cc2cc(-c3nc(N[C@@H]4C[C@H]5CO[C@H](O5)[C@H]4O)ncc3Cl)cc(F)c2nn1 [Compound 258, (1S,3R,4S,5R)-3-((5-chloro-4-(8-fluoro-3-(2-hydroxypropan-2-yl)cinnolin-6-yl)pyrimidin-2-yl)amino)-6,8-dioxabicyclo[3.2.1]octan-4-ol]
